Laboratory results from patent US4808727A, “Imidazolium hydrogen carbonates” (Hoffmann-LaRoche Inc., priority 1986, dated 1989).

Columns and labels:
[1] = acute toxicity, single oral administration to mice; conditions: mouse, in vivo, p.o.
Experimental: The filaricidal activity of the compounds of formula III can be determined, for example, on cotton rats (Sigmodon hispidus) which have been infected with Litomosoides carinii. The infection with L. carinii is transmitted by the blood-sucking mite (Bdellonyssus bacoti) in which the development of the microfilaria to infectious larvae takes place. The cotton rats are infected by exposing them to bites of infected mites. Fourteen (14) weeks after the infection, groups of 2-4 animals are treated subcutaneously with the compound to be tested. Forty-two (42) days after treatment with the compound to be tested, the experimental animals are dissected, whereby the adult filaria are removed from the pleural cavity. Living and dead or encapsulated worms are separated from one another and weighed. The filaricidal activity is expressed as the percentage proportion of dead macrofilaria per treatment group. The ED90 is then determined by means of Probit analysis using the values from different dosage groups. The ED90 is that dosage at which 90% of the worms removed from the pleural cavity are dead. In the following Table, there are compiled the results which have been obtained in the previously described test with representative members of the class of compound defined by formula III. […]

[2] = test system: Litomosoides carinii; test: filaricidal activity in cotton rats infected with Litomosoides carinii (dead adult filaria in pleural cavity); format: in vivo, Litomosoides carinii in cotton rats (Sigmodon hispidus); conditions: sc, 1008 h, s.c., infected cotton rats treated 14 weeks after infection, dissected 42 days after treatment, dosage at which 90% of worms are dead, Probit analysis
Experimental: The filaricidal activity of the compounds of formula III can be determined, for example, on cotton rats (Sigmodon hispidus) which have been infected with Litomosoides carinii. The infection with L. carinii is transmitted by the blood-sucking mite (Bdellonyssus bacoti) in which the development of the microfilaria to infectious larvae takes place. The cotton rats are infected by exposing them to bites of infected mites. Fourteen (14) weeks after the infection, groups of 2-4 animals are treated subcutaneously with the compound to be tested. Forty-two (42) days after treatment with the compound to be tested, the experimental animals are dissected, whereby the adult filaria are removed from the pleural cavity. Living and dead or encapsulated worms are separated from one another and weighed. The filaricidal activity is expressed as the percentage proportion of dead macrofilaria per treatment group. The ED90 is then determined by means of Probit analysis using the values from different dosage groups. The ED90 is that dosage at which 90% of the worms removed from the pleural cavity are dead. In the following Table, there are compiled the results which have been obtained in the previously described test with representative members of the class of compound defined by formula III. Moreover, the Table contains data concerning the acute toxicity of some of these compounds in mg/per kg in the case of single oral administration to mice.

Compound	LD50 [1] [mg/kg]	ED90 [2] [mg/kg]
CN(C)C=Cc1n(N=Cc2ccc(N(C)C)cc2)cc[n+]1N=Cc1ccc(N(C)C)cc1.[Cl-] [Compound A, 1,3-bis[[p-(dimethylamino)benzylidene]amino]-2-[2-(dimethylamino)vinyl]imidazolium chloride]	312 to 625	1
CC(C)c1n(N=Cc2ccc(N(C)C)cc2)cc[n+]1N=Cc1ccc(N(C)C)cc1.[Cl-] [Compound B, 1,3-bis[[p-(dimethylamino)benzylidene]amino]-2-isopropyl-imidazolium chloride]		0.5
Cc1n(N=Cc2ccc(N(C)C)cc2)cc[n+]1N=Cc1ccc(N(C)C)cc1.[Cl-] [Compound C, 1,3-bis[[p-(dimethylamino)benzylidene]amino]-2-methylimidazolium chloride]		0.85
CN(C)c1ccc(C=Nn2cc[n+](N=Cc3ccc(N(C)C)cc3)c2-c2ccccc2)cc1.[Cl-] [Compound D, 1,3-bis[[p-(dimethylamino)benzylidene]amino]-2-phenylimidazolium chloride]	1250 to 2500	< 1
